Results taken from paper PMC2748937 (Nature structural & molecular biology, 2009).

Tests used:
Grb14 RA-PH K252A = biological target: T1, Grb14 RA-PH K252A (Homo sapiens, UniProt Q14449, K252A); experiment: Fluorescence-polarization phosphoinositide binding, Grb14 RA-PH K252A; conditions: Grb14 K252A vs WT
T1 sequence (Q14449 106-356 K252A limits assumed): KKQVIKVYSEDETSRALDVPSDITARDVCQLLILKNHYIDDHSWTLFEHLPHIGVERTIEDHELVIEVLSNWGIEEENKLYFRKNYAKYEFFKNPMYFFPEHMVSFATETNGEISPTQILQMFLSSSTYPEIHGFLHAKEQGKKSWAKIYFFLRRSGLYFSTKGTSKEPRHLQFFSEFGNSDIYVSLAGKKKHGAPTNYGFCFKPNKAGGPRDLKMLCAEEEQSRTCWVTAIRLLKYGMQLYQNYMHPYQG

[1] = system: Grb14 recruitment to the insulin receptor; format: cell-based; conditions: co-immunoprecipitation, data not shown
crystal structure = biological target: the molecule itself; experiment: crystal structure

## CCCCCC(=O)O[C@H](COC(=O)CCCCCNC(=O)CCC1=C(C)C2=Cc3ccc(-c4ccc(OC)cc4)n3[B-](F)(F)[N+]2=C1C)COP(=O)(O)O[C@H]1[C@H](O)[C@@H](OP(=O)(O)O)[C@H](OP(=O)(O)O)[C@@H](OP(=O)(O)O)[C@H]1O [345P3, PI(3,4,5)P3]
Grb14 RA-PH K252A
  decrease in binding affinity relative to wild-type: more than three

## COC[C@H]1OC(=O)c2coc3c2[C@@]1(C)C1=C(C3=O)[C@@H]2CCC(=O)[C@@]2(C)C[C@H]1OC(C)=O [wortmannin]
[1]
  effect on recruitment of Grb14 to the insulin receptor: PI-3K activity is not required for Grb14 recruitment to the receptor

B1: Grb10 RA-PH (residues 106-357 of human Grb10 isoform c (domain or fragment)
chain: GSHMAAAKQDVKVFSEDGTSKVVEILADMTARDLCQLLVYKSHSVDDNSWTLVEHHPHLGLERCLEDHELVVQVESTMASESKFLFRKNYAKYEFFKNPMNFFPEQMVTWSQQSNGSQTQLLQNFLNSSSSPEIQGFLHVKELGKKSWKKLYVCLRRSGLYCSTKGTSAAPRHLQLLADLEDSNIFSLIAGRKQYNAPTDHGLCIKPNKVRNETKELRLLCAEDEQTRTSWMTAFRLLKYGMLLYQNYRIPQQRKA
Crystal structure
  binding result: binds
